How the values were obtained:
GST Yb (μ class) = assay: Western blot of GST Yb (μ-type) expression in H4IIE cells; type: cell-based, rat; settings: for GST Yb (μ) induction: H4IIE cells
Method: Western Blot Analysis Glutathione S-transferase Expression. Cultured H4IIE rat hepatoma cells were treated with test agent with various concentrations or various time points. […] Cells were harvested using SDS lysis buffer (20 mM Tris-Cl, pH 6.8, containing 0.4% SDS (w/v), 4% glycerol, 0.24 M β-mercaptoethanol, and 0.5% bromphenol) and the lysates were boiled for 5 minutes, then stored at -20° C. An aliquot of lysate was used for protein determination using a bicichoninic acid protein assay kit with BSA as a standard. Equivalent amounts of protein were electrophoresed by SDS-PAGE on precast 12.5% Tris-glycine acrylamide gels (Novex, San Diego, Calif.), then transferred to polyvinylidene difluoride (PDVF) membranes. Nonspecific binding sites were blocked with 10% nonfat dry milk and blotting was performed with goat polyclonal antirat GSTYa (α class) IgG or antirat, GSTYb (μ class) IgG and analyzed by alkaline phosphatase-conjugated antigoat IgG secondary antibody (Oxford Biomed Research, Inc.) and quantified using an AP 20 Alkaline Phosphatase Kit detection system (Oxford Biomed Research, Inc.).
Induction of Expression of Glutathione S-transferase Ya (α-type) and Yb (μ-type) in Cell Cultures. […] To date, the superfamily of mammalian cytosolic GST isozymes has been defined genetically to consist of four classes; α, μ, π, and θ, which differ in tissue-specificexpression and distribution, as well as substrate specificity. […] Cultured H4IIE cells were treated either with 10 μM of 4'-BF (FIG. 7B) or sulforaphane for 0, 2, 4, 8, 16, 24, and 48 hours for a time-dependent study, or with 0.16, 0.8, 4, 10, 20, and 50 μM of 4'-BF (FIG. 7A) or sulforaphane for 24 hr for a dose-dependent study (FIG. 7A). The expressions of two major detoxification isoforms of GSTs (GST Ya: α-type, and GST Yb: μ-type) mediated by 4'-BF or sulforaphane were investigated in H4EII rat hepatoma cells using Western blotting technique.

[1] = system: pDTD-1097CAT construct (QR gene 5'-region), HepG2 cells; assay: CAT expression in HepG2 cells transfected with pDTD-1097CAT; type: cell-based, human cells; rat QR gene; settings: 10 μM, 48 h; p<0.0001
Method: Transcient Transfection Gene Expression Assay. Cultured HepG2 human hepatoma cells were transfected with three plasmid constructs (PDTD-1697CAT, XRE-CAT, ARE-CAT) containing various portions of the 5'-region of the QR gene fused to the CAT gene using the calcium phosphate precipitation method (J. Sambrook et al., Molecular cloning: A Laboratory Handbook, Ed. Chris Nolan, CHS Laboratory Press, 1989). After 4 hours of transfection, the cells were treated with 10% glycerol for 3 minutes and rinsed with PBS and switched to MEM, containing 100 units/ml penicillin G sodium, 100 units/ml streptomycin sulfate, nonessential amino acids, and 1 mM sodium pyruvate (Life Technologies Inc.) supplemented with 10% fetal bovine serum for 12-16 hours recovery. Then, test agents were added to the cells. After 48 hours of treatment with the test agents, cells were harvested with lysis buffer (Boehringer Mannheim Biochemical) and CAT protein expressions were assessed using a CAT ELISA kit (Boehringer Mannheim Biochemical). […] All data were expressed as mean +/- SD. […]
In particular, FIG. 1 illustrates quantitation of CAT expression in HepG2 cells transfected with QR-CAT constructs. […] CAT expression (ng CAT/mg protein) was determined using a CAT ELISA, and the ratio of CAT expression between treated and control cells was calculated (ratio=treated/control).

O=c1cc(-c2ccc(Br)cc2)oc2ccccc12 [4'-Bromoflavone]
maximum induction time, GST Yb (GST Yb (μ class); 10 μM, 0-48 h): 16 to 24 h
maximum induction concentration, GST Yb (GST Yb (μ class); 0.16-50 μM, 24 h): 10 to 20 µM
GST Yb (μ) induction (GST Yb (μ class)): effectively induced
GST Yb (μ) induction (GST Yb (μ class); listed as 4'-BF): induced by 4'-BF in a time, dose-dependent manner
CAT expression, pDTD-1097CAT [1]: significantly (p<0.0001) induced

From patent US6046231A, “Use of 4'-bromoflavone in a cancer chemopreventative composition and method” (The Board of Trustees of the University of Illinois, priority 1999, dated 2000)
